# Tests used:
# [1] = test system: calcium transmission in mitochondria of a rat's liver; experiment: Calcium transmission to rat liver mitochondria; format: biochemical; details: for % of inhibition, calcium transmission: medium with CaCl 300 nmoles/ml
# Protocol: Sucrose 170mM, KCl 10 mM, MgCl2 […], K2 HPO 5 mM, EGTA 0.01 mM
# 2-oxoglutaran 2 mM, ADP 1 mM, mitochondria
# protein 4 mg/m. Temperature 25° C.
# of hydrogen ion consumption. The calcium transmission to mitochondria was
# studied with two methods; in a continuous way with a Radiometer calcium
# electrode type F2112 or with an isotopic method.
# *The medium contained Ca Cl 300 nmoles/ml.
# [2] = test system: blood-glucose concentration; experiment: ED30 oral hypoglycemic dose in rabbits (Table 2); format: in vivo; details: Oryctolagus cuniculus, read-out: Effective oral doses ED30
# Protocol: (§1) The hypoglycemic activity of N-{4-[2-(pyrazole-1-carbonamide)-ethyl]-benzenesulphonyl}-ureas prepared according to the present invention can be noticed after their oral administration to mice, rats, rabbits and people and when determining the glucose concentration in blood with a known enzymatic method using glucose oxidase.
# (§2) (Table 2). […] It has been observed that even 9 hours after the administration of one dose of SPC-5002 to rats, the glucose level in blood was decreased, whereas in the case of Glibornuride the glucose level comes back to its normal value in 6 hours from the time of the administration.
# [3] = test system: insulin concentration; experiment: Insulin in normal men after a meal (Table 8); format: in vivo; details: for Insulin concentration: normal men, meal, oral 10 mg
# Protocol: (§3) When administered to normal men volunteers it has been stated that 60 minutes after the administration of SPC-5002 a 5 mg oral dose causes the decrease in blood-glucose of 28% in comparision to the starting value and after 90 minutes it reaches 33% (Table 7). Whereas Glibornuride employed in a dose 2.5 times as big on peak of its activity decreases the glucose blood level only of 19%. It can clearly be noticed that there is a positive correlation between the glycemic and insulin level curves. Both examined preparations cause a significant decrease in free fatty acids in blood. […] 60 and 90 minutes after the SPC-5002 administration, the blood-glycose level is decreased to 33 and 52% while in the Placebo group it is maintained in the range of 13-14%.
# (§4) The comparison of glucose concentration changes in voluntary-normal men
# (§5) eaten a meal and the oral administration of 10 mg of SPC-5002 or Placebo
# [4] = Acute, subacute and protracted toxicity (6 months); format: in vivo
# [5] = test system: blood-glucose concentration; experiment: Hypoglycemic activity in three animal species versus Glibornuride; format: in vivo, mice, rats, rabbits; details: parenteral and oral
# Protocol: as §1, §2
# [6] = test system: blood-glucose concentration; experiment: Decrease in blood-glucose concentration in rats after oral dose (Table 1; ED30 rats Table 2); format: in vivo; details: Rattus norvegicus, oral, read-out: Effective oral doses ED30
# How it was run: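 Compounds were dosed orally to rats, and blood glucose was measured enzymatically with glucose oxidase. Effects are expressed as decrease in blood glucose, with ED30 as the dose effective for a 30% reduction.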
# [7] = test system: blood-glucose concentration; experiment: Blood-glucose time course up to 24 hours in rats (Table 3); format: in vivo; details: for glucose concentration in blood, average: oral 4 mg/kg
# Protocol: as §1, §2
# (§6) The comparison of SPC-5002 and Glibornuride effect on changes in
# concentration of rats in time up to 24 hours from the moment of the
# in an oral dose containing 4 mg/kg body weight
# [8] = test system: insulin concentration; experiment: Insulin in normal men volunteers (Table 7); format: in vivo; details: oral 5 mg SPC-5002 or 12.5 mg Glibornuride
# Protocol: as §3
# The comparison of glucose, insulin and free fatty acids concentration in
# normal men after the oral administration of 5 mg of SPC-5002 or 12.5 mg
# [9] = Oral toxicity in rats (LD50); details: rat, in vivo
# [10] = test system: glucose concentration; experiment: Blood glucose in normal men after a meal (Table 8); format: in vivo; details: for blood-glycose level decrease: normal men after meal; for Glucose concentration / % of changes in glucose concentration: meal, oral 10 mg
# Protocol: as §1, §3, §4, §5
# [11] = test system: oxygen consumption in mitochondria of a rat's liver; experiment: Oxygen consumption of rat liver mitochondria; format: biochemical
# Protocol: 2-oxoglutaran 2 mM, ADP 1 mM, mitochondria | protein 4 mg/m. […] The
# [12] = test system: blood-glucose concentration; experiment: Blood-glucose time course up to 24 hours in rabbits (Table 4); format: in vivo; details: for glucose concentration in blood, average: oral 5 mg/kg
# Protocol: as §1, with “oxidase. […]” for “oxidase.”
# as §6
# concentration of rabbits in time up to 24 hours from the moment of the
# in an oral dose containing 5 mg/kg body weight
# [13] = Oral toxicity in mice (LD50); details: mouse, in vivo
compound,measurement,setting,value
"Cc1ccn(C(=O)NCCc2ccc(S(=O)(=O)NC(=O)NC3CCCCC3)cc2)n1 [SPC-5002, N-{4-[2-(3-methylpyrazole-1-carbonamide)-ethyl]-benzenesulphonyl}-N'-cyclohexylourea]","% of inhibition, calcium transmission",[1]; concentration 0.05 n M,8%
same,Calcium transmission / Oxide consumption (ratio of inhibition),[1]; concentration 0.1 n M,1.75
same,"% of inhibition, calcium transmission",[1]; concentration 0.1 n M,21%
same,Calcium transmission / Oxide consumption (ratio of inhibition),[1]; concentration 0.3 n M,1.42
same,"% of inhibition, calcium transmission",[1]; concentration 0.3 n M,30%
same,Calcium transmission / Oxide consumption (ratio of inhibition),[1]; concentration 0.5 n M,1.55
same,"% of inhibition, calcium transmission",[1]; concentration 0.5 n M,53%
same,Calcium transmission / Oxide consumption (ratio of inhibition),[1]; concentration 1.0 n M,0.99
same,"% of inhibition, calcium transmission",[1]; concentration 1.0 n M,68%
same,Ki,[1]; rat liver mitochondria,450 µM
same,preference of inhibition: calcium transmission versus oxidizing processes,[1]; rat liver mitochondria,preferential inhibiting of calcium transmission
same,"Ki ratio SPC-5002 / Glibenclamide, calcium transmission",[1]; ratio of inhibitor constants,10
same,ED30,[2],5.5 mg/kg
same,insulin concentration relative to placebo group,"[3]; normal men after meal, 60 minutes",twice as high as that in the placebo group
same,Insulin concentration,[3]; 0 mins (empty stomach),7 μU/cc
same,Insulin concentration,[3]; 30 mins,50 μU/cc
same,Insulin concentration,[3]; 60 mins,55 μU/cc
same,Insulin concentration,[3]; 90 mins,17 μU/cc
same,Insulin concentration,[3]; 120 mins,8 μU/cc
same,Insulin concentration,[3]; 180 mins,8 μU/cc
same,changes in haematopoietic system,[4]; 6 months administration,No changes in the haematopoietic system
same,effect on liver and kidneys,[4]; 6 months administration,did not handicap the activities of the liver and kidneys
same,general number of white blood corpuscles,[4]; 6 months administration,did not influence the general number of white blood corpuscles
same,toxicity,"[4]; acute, subacute and protracted toxicity",extremely low toxicity
same,"body weight, consumption of food and water",[4]; compared with control group,did not reveal any differences between the control group and the group under examination
same,hypoglycemic activity relative to Glibornuride,[5],about twice as active as Glibornuride
same,ED30,[6],2.2 mg/kg
same,duration of decreased blood glucose after one dose,[7]; one dose,≥ 9 h
same,duration of hypoglycemic activity relative to Glibornuride,[7]; one dose,longer hypoglycemic activity than the administration of Glibornuride
same,"glucose concentration in blood, average",[7]; 0 h,82 mg/100 cc
same,"glucose concentration in blood, average",[7]; 1 h,58 mg/100 cc
same,"glucose concentration in blood, average",[7]; 3 h,45 mg/100 cc
same,"glucose concentration in blood, average",[7]; 6 h,65 mg/100 cc
same,"glucose concentration in blood, average",[7]; 9 h,70 mg/100 cc
same,"glucose concentration in blood, average",[7]; 24 h,85 mg/100 cc
same,Insulin concentration,[8]; 0 mins (empty stomach),4.0 μU/cc
same,Insulin concentration,[8]; 30 mins,9.2 μU/cc
same,Insulin concentration,[8]; 60 mins,13.5 μU/cc
same,Insulin concentration,[8]; 90 mins,7.3 μU/cc
same,Insulin concentration,[8]; 120 mins,5.0 μU/cc
same,Insulin concentration,[8]; 180 mins,3.2 μU/cc
same,LD50,[9],> 15000 mg/kg
same,blood-glycose level decrease,[10]; 60 minutes,33%
same,blood-glycose level decrease,[10]; 90 minutes,52%
same,glucose increase vs starting value,"[10]; normal men, 30 minutes after the meal",34%
same,Glucose concentration,"[10]; normal men, 0 mins (empty stomach)",89 mg/100 cc
same,% of changes in glucose concentration,"[10]; normal men, 30 mins",+34%
same,Glucose concentration,"[10]; normal men, 30 mins",119 mg/100 cc
same,% of changes in glucose concentration,"[10]; normal men, 60 mins",-33%
same,Glucose concentration,"[10]; normal men, 60 mins",60 mg/100 cc
same,% of changes in glucose concentration,"[10]; normal men, 90 mins",-52%
same,Glucose concentration,"[10]; normal men, 90 mins",43 mg/100 cc
same,% of changes in glucose concentration,"[10]; normal men, 120 mins",-21%
same,Glucose concentration,"[10]; normal men, 120 mins",70 mg/100 cc
same,% of changes in glucose concentration,"[10]; normal men, 180 mins",0%
same,Glucose concentration,"[10]; normal men, 180 mins",89 mg/100 cc
same,effect on oxidation,[11]; 0.05 nM,no effect
same,"% of inhibition, oxygen consumption",[11]; concentration 0.05 n M,0%
same,"% of inhibition, oxygen consumption",[11]; concentration 0.1 n M,12%
same,"% of inhibition, oxygen consumption",[11]; concentration 0.3 n M,21%
same,"% of inhibition, oxygen consumption",[11]; concentration 0.5 n M,34%
same,"% of inhibition, oxygen consumption",[11]; concentration 0.7 n M,47%
same,"% of inhibition, oxygen consumption",[11]; concentration 1.0 n M,69%
same,Ki,[11]; rat liver mitochondria,750 µM
same,effectiveness and duration relative to Glibornuride,[12],more effective and longer activity in comparison to Glibornuride
same,"glucose concentration in blood, average",[12]; 0 h,71 mg/100 cc
same,"glucose concentration in blood, average",[12]; 0.5 h,57 mg/100 cc
same,"glucose concentration in blood, average",[12]; 1 h,59 mg/100 cc
same,"glucose concentration in blood, average",[12]; 3 h,63 mg/100 cc
same,"glucose concentration in blood, average",[12]; 6 h,62 mg/100 cc
same,"glucose concentration in blood, average",[12]; 9 h,62 mg/100 cc
same,"glucose concentration in blood, average",[12]; 24 h,70 mg/100 cc
same,LD50,[13],> 20000 mg/kg
